# pIC50, pKi: −log10 of the molar value.
# Tests used:
# [1] = target: T1, Amine oxidase [flavin-containing] B (Homo sapiens, UniProt P27338); experiment: Inhibition of human recombinant MAO-B assessed as H2O2 production by Resorufin/Amplex Red assay
# T1 sequence (P27338 whole entry): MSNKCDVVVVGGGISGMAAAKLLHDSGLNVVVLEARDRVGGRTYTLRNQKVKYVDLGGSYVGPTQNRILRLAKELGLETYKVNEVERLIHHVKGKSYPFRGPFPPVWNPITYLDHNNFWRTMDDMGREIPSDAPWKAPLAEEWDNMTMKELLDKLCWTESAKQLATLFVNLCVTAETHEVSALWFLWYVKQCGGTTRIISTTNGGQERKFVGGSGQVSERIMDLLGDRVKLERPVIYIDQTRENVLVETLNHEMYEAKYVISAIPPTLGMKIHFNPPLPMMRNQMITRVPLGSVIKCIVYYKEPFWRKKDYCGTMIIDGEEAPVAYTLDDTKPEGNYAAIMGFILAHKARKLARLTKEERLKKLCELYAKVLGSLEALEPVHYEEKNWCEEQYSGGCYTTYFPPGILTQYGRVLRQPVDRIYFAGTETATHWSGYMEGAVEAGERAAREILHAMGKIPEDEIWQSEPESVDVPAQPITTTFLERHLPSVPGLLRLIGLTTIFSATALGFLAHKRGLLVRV
# [2] = target: T2, Amine oxidase [flavin-containing] A (Homo sapiens, UniProt P21397); experiment: Inhibition of human recombinant MAO-A assessed as H2O2 production by Resorufin/Amplex Red assay
# T2 sequence (P21397 whole entry): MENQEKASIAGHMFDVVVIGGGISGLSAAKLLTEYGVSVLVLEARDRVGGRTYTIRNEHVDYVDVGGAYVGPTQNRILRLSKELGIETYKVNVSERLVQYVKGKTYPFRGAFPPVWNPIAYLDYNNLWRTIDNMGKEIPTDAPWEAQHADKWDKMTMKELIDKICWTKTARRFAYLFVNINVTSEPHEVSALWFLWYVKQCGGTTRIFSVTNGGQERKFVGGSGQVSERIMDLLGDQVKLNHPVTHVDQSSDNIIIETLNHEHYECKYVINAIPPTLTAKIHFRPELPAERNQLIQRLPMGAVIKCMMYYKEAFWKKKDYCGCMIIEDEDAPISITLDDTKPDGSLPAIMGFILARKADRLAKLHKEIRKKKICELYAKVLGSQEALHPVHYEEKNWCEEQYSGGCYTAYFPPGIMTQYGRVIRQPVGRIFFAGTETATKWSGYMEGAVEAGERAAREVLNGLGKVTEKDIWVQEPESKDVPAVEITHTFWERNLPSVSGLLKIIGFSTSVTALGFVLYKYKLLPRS
# [3] = target: T3, Amine oxidase [copper-containing] 3 (Homo sapiens, UniProt Q16853); experiment: Inhibition of human recombinant SSAO/VAP1 assessed as H2O2 production by Resorufin/Amplex Red assay
# T3 sequence (Q16853 whole entry): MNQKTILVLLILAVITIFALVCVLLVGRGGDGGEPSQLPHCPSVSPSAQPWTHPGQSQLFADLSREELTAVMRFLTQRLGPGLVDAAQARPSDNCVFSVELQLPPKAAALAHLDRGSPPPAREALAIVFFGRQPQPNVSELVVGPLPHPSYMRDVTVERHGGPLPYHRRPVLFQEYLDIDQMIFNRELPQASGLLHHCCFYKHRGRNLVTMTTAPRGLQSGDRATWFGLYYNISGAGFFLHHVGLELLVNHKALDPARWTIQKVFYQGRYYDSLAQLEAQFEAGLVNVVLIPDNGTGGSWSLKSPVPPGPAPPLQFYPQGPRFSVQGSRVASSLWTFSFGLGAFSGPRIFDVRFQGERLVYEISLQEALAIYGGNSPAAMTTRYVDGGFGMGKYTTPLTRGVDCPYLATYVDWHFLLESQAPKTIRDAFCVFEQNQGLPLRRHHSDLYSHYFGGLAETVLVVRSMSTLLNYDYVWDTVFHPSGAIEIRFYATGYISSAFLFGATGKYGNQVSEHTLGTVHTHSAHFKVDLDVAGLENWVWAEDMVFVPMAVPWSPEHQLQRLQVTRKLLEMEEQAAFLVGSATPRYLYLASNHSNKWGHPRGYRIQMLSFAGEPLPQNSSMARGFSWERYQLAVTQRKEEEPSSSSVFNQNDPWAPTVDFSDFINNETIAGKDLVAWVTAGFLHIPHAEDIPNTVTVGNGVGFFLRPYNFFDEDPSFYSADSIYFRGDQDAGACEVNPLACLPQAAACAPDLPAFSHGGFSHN
# [4] = target: recombinant human DAO (diamine oxidase) (Homo sapiens, UniProt P19801); experiment: Inhibition of human DAO measuring H2O2 production by Resorufin/Amplex Red assay
# [5] = target: T4, Amine oxidase [copper-containing] 3 (Mus musculus, UniProt O70423); experiment: Inhibition of SSAO/VAP1 in mouse adipocytes measuring H2O2 production by Resorufin/Amplex Red assay; format: cell-based
# T4 sequence (O70423 whole entry): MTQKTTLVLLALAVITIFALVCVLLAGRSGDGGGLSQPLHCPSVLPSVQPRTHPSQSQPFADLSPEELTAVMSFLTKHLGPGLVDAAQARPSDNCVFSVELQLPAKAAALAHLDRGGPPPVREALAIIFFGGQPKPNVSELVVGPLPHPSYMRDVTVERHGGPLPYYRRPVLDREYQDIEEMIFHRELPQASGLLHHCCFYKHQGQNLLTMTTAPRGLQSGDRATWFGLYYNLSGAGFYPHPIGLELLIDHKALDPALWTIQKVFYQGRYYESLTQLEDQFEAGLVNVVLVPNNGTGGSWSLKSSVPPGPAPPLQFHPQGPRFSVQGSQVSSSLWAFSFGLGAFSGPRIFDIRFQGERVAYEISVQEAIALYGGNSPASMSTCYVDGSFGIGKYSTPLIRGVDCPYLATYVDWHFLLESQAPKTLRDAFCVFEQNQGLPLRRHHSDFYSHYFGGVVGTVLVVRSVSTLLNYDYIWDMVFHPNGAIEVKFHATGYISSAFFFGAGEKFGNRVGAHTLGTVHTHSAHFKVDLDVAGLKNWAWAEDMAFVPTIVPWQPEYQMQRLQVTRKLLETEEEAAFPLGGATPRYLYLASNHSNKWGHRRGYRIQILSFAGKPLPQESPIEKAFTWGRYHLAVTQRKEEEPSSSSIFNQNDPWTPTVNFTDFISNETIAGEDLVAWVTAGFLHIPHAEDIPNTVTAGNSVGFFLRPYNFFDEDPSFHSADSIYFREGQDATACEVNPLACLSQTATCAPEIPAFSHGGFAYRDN
# [6] = Inhibition of CYP450; format: ADME
# [7] = Oral bioavailability in rat; format: ADME, organism-based; settings: in vivo
# Rattus norvegicus = experiment: Inhibition of SSAO/VAP1 in po dosed rat gonadal adipose tissue after 6 hrs; format: functional, organism-based
# [8] = target: T3, Amine oxidase [copper-containing] 3; experiment: Inhibition of human SSAO/VAP1 measuring H2O2 production by Kitz and Wilson plot analysis
# Salmonella typhimurium = experiment: Mutagenic activity in Salmonella typhimurium by Ames test; format: toxicity, organism-based; settings: salmonella enterica subsp. enterica serovar typhimurium
# [9] = Half life in po dosed rat; format: ADME, organism-based; settings: in vivo
# Mus musculus = experiment: Inhibition of SSAO/VAP1 in po dosed mouse gonadal adipose tissue after 6 hrs; format: functional, organism-based
# [10] = target: T5, Amine oxidase [copper-containing] 2 (Homo sapiens, UniProt O75106); experiment: Inhibition of human AOC2
# T5 sequence (O75106 whole entry): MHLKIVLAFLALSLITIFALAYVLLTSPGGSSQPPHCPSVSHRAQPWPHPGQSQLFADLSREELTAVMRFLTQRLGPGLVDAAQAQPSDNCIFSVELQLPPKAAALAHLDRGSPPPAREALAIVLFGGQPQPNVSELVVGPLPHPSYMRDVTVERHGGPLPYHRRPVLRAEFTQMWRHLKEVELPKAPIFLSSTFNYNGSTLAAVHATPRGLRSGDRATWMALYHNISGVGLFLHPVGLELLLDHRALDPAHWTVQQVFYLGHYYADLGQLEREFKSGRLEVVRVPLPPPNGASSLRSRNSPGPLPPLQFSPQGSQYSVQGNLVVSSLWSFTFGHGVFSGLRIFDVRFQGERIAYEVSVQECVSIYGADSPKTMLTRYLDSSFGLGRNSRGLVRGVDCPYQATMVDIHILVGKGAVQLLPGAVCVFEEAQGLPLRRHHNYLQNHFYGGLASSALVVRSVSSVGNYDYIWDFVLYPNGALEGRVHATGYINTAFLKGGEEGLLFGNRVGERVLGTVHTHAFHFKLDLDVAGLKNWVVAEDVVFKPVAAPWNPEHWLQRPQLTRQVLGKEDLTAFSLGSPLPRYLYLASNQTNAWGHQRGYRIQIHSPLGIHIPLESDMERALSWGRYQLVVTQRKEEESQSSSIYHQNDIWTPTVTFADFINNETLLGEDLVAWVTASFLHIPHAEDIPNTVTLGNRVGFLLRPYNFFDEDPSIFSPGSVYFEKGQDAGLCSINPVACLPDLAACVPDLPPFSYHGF
Compound,pIC50 [1],pIC50 [2],pIC50 [3],other results
NCC=CCOc1ccccc1 [listing 1 of 2 here],–,–,< 4.00,–
NCC=CCOc1ccccc1 [listing 2 of 2 here],–,–,4.09,–
NC/C=C(/F)COc1cccc(Cl)c1,7.52,–,6.60,–
CC(C)(C)c1ccc(OC/C(F)=C\CN)cc1,5.19,< 4.52,6.68,–
NC/C=C(/F)COc1ccc(F)c(F)c1,7.05,–,6.72,–
NC/C=C(/F)COc1cccc(C(F)(F)F)c1,7.52,< 5.00,6.82,–
CN(C)C(=O)c1ccc(OC/C(F)=C\CN)cc1,4.72,–,6.43,–
NC/C=C(/F)COc1ccc(C(=O)N2CCCC2)cc1,4.96,–,6.85,–
NC/C=C(/F)COc1ccc(C(=O)NC2CCCC2)cc1,5.79,< 4.52,7.70,pIC50 [4]: < 4.52; pIC50 [5]: 6.28
NC/C=C(/F)COc1ccc(C(=O)NC2CCCCC2)cc1,5.95,< 4.52,8.00,inhibition (INH) [6]: Not Active; pIC50 [4]: 4.58; bioavailability [7]: 62%; EC50 (Rattus norvegicus): 10 mg/kg; pKi [8]: 5.79; Activity (Salmonella typhimurium): Non-toxic; half-life [9]: 1.62 h; EC50 (Mus musculus): 10 mg/kg; pIC50 [10]: < 5.00; pIC50 [5]: 6.82
NC/C(=C/F)CCc1ccc(F)cc1 [MOFEGILINE],8.00,5.75,7.70,pIC50 [4]: < 5.00; pKi [8]: 5.79; pIC50 [5]: 8.00

# Continued, in another order:
pIC50 [1],pIC50 [2],pIC50 [3],Compound,other results
6.74,< 4.52,6.54,NC/C=C(/F)COc1ccccc1,–
–,–,4.70,NC/C=C(\F)COc1ccccc1,–
6.51,–,6.80,COc1ccc(OC/C(F)=C\CN)cc1,–
6.35,–,6.62,NC/C=C(/F)COc1ccc(Oc2ccccc2)cc1,–
6.80,–,7.70,CSc1ccc(OC/C(F)=C\CN)cc1,–
7.15,–,6.74,NC/C=C(/F)COc1ccc(OC(F)(F)F)cc1,–
8.00,–,7.15,NC/C=C(/F)COc1ccc([N+](=O)[O-])cc1,–
6.89,–,7.40,NC/C=C(/F)COc1ccc(C(F)(F)F)cc1,–
< 4.52,< 4.52,5.97,NC/C=C(/F)COc1ccc(C(N)=O)cc1,–
5.66,–,6.59,CN(Cc1ccccc1)C(=O)c1ccc(OC/C(F)=C\CN)cc1,–
6.21,–,7.10,NC/C=C(/F)COc1ccc(C(=O)NCc2ccccc2)cc1,–
5.79,< 4.52,7.52,C[C@@H](NC(=O)c1ccc(OC/C(F)=C\CN)cc1)c1ccccc1,pIC50 [4]: 5.61
5.19,< 4.52,7.40,C[C@H](NC(=O)c1ccc(OC/C(F)=C\CN)cc1)c1ccccc1,pIC50 [4]: 4.13; pIC50 [5]: 6.89
5.53,–,7.40,CC(NC(=O)c1ccc(OC/C(F)=C\CN)cc1)c1ccccc1 (racemic),–

# Reference: ChEMBL document CHEMBL2029323, “The discovery and development of selective 3-fluoro-4-aryloxyallylamine inhibitors of the amine oxidase activity of semicarbazide-sensitive amine oxidase/vascular adhesion protein-1 (SSAO/VAP-1)” (Bioorg Med Chem Lett, 2012)
